# In patent publication US4252798A, “Reversible male contraception” (The Upjohn Company, priority 1980, dated 1981):
# Experiments:
# [1] = tested on: healthy male mammal post-puberty (man); assay: Male contraception by oral administration to man; assay type: in vivo
# Description: A 60 kg. Person who is the admitted parent of 2 children is given one 50 mg. tablet daily of 17β-methoxy-2α-methyl-5α-androstan-3-one.
# A 60 kg. Person is treated daily with one teaspoonful of a suspension of 2α,3α-epithio-17β-ethoxy-5α-androstane (100 mg./ml.).
# [2] = tested on: rat ABP (androgen binding protein) and rat AR (androgen receptor); assay: ABP/AR ratio: relative affinity (vs DHT) for rat ABP and rat AR; conditions: ratio of relative affinity for rat ABP to relative affinity for rat AR, each compared to DHT
# Source text: The present invention includes steroids which have a high affinity for rat ABP (androgen binding protein) as compared to DHT (dihydrotestosterone, 17β-hydroxy-5α-androst-3-one). N. A. Musto et al. in Endo. Res. Comm. 4, 147 (1977) have described a procedure for isolation and purification of rat ABP. Utilizing the purified rat ABP, and following the procedure of E. M. Ritzen et al. described in J. Biol. Chem. 249, 6597 (1974), the relative affinity of various non-estrogenic-type steroids can readily be determined. The dissociation constant (Kd) measures the affinity of a compound for a protein. The dissociation constant for DHT and the non-estrogenic-type steroids is determined. […]
# E. M. Wilson and F. S. French in the J. Biol. Chem. 251, 5620 (1976) have described a procedure for isolation and partial purification of rat AR. Utilizing the rat AR and following the procedure of G. Verhoeven et al. described in Steroids 26, 149 (1975) the relative affinity of various steroids can readily be determined. The dissociation constant for DHT and non-estrogenic steroids is determined. […] D. J. Tindall, et al., in the International Journal of Andrology, Supplement 2 (1978) set forth the preferred method for determining the relative affinities of a steroid for ABP and AR from which the ABP/AR ratio can be calculated. […]
# tom = assay: Male contraception by daily treat given to tom; assay type: in vivo, tom (cat)
# Description: A 6 kg. tom who has previously sired offspring is given a treat daily containing 20 mg. of 17β-methoxy-2α-methyl-5α-androstan-3-one. […] Eighty days following cessation of administration of the treat, the tom, upon sexual intercourse, fertilizes the same ovulating female at the time of her estrus.
# men = conditions: cited from earlier work
# normal men = conditions: six normal men; Morse et al., J. Clin. Endocrinol. Metab. 37, 882 (1973); cited from earlier work
compound,measurement,setting,value
"CCO[C@H]1CC[C@H]2[C@@H]3CC[C@H]4C[C@@H]5S[C@@H]5C[C@]4(C)[C@H]3CC[C@]12C [2α,3α-epithio-17β-ethoxy-5α-androstane]",fertilization of a fertile female following sexual intercourse,"[1]; Example 5: 60 one teaspoonful daily of suspension (100 mg./ml.), after 60 days",does not fertilize
same,fertility on further administration,[1]; Example 5: further administration,remains infertile
"CO[C@H]1CC[C@H]2[C@@H]3CC[C@H]4C[C@@H]5S[C@@H]5C[C@]4(C)[C@H]3CC[C@]12C [2α,3α-epithio-17β-methoxy-5α-androstane]",fertilization of a fertile female following sexual intercourse,"[1]; Example 3: 70 one-half teaspoonful/day of elixir (100 mg./ml.), after 60 days",does not fertilize
same,fertility on continued administration,[1]; Example 3: continued daily elixir,remains infertile
"C[C@@H]1C[C@@]2(C)C(=CC1=O)C[C@@H](C)[C@H]1[C@@H]3CC[C@H](O)[C@@]3(C)CC[C@@H]12 [2α,7α-dimethyltestosterone]",ABP/AR ratio,[2],about 6.0
CO[C@H]1CC[C@H]2[C@@H]3CC[C@H]4CC(=O)[C@H](C)C[C@]4(C)[C@H]3CC[C@]12C [17β-methoxy-2α-methyl-5α-androstan-3-one],fertilization of a fertile female following sexual intercourse,[1]; Example 1: 70 10 mg tablet twice daily for about 100 days,does not fertilize
same,fertility on continued administration,[1]; Example 1: continued twice daily,remains infertile
same,fertilization of a fertile female following sexual intercourse,[1]; Example 2: 80 200 mg capsule four times daily for 60 days,does not fertilize
same,fertility on continued administration,[1]; Example 2: continued 4 times daily,remains infertile
same,fertility on continued administration,[1]; Example 4: continued daily,remains infertile
same,fertilization of an ovulating female at estrus following sexual intercourse,"tom; Example 6: 6 kg tom, treat with 20 mg daily, after 60 days",does not fertilize
same,fertility on continuous daily administration,tom; Example 6: continued daily treat,remains infertile
same,fertilization of the same ovulating female after cessation (reversibility),tom; Example 6: eighty days following cessation of the treat,fertilizes
CCCCCCC(=O)O[C@H]1CC[C@H]2[C@@H]3CCC4=CC(=O)CC[C@]4(C)[C@H]3CC[C@]12C [testosterone enanthate],effect on sperm in men who acknowledged paternity,"men; Steinberger et al., Fertility and Sterility 27, 216 (1976)",azoospermia
same,sperm count,"men; seven men, Mauss et al., Acta. Endocrinol. 78, 373 (1975)","less than 3,000,000 sperm/ml"
CCC(=O)O[C@H]1CC[C@H]2[C@@H]3CCC4=CC(=O)CC[C@]4(C)[C@H]3CC[C@]12C [testosterone propionate],sperm concentration,normal men,sharp drop
same,testicular testosterone,normal men,decrease
